ChEMBL document CHEMBL2073945, “Contribution of cholesterol and phospholipids to inhibitory effect of dimethyl-beta-cyclodextrin on efflux function of P-glycoprotein and multidrug resistance-associated protein 2 in vinblastine-resistant Caco-2 cell monolayers” (Pharm Res, 2004)

Biological target: ATP-dependent translocase ABCB1 (Homo sapiens, UniProt P08183)
Test: TP_TRANSPORTER: transepithelial transport of Rhodamine 123 (basal to apical) in Caco-2R cells
Assay type: functional, cell-based

Chain of ATP-dependent translocase ABCB1 (P08183 whole entry): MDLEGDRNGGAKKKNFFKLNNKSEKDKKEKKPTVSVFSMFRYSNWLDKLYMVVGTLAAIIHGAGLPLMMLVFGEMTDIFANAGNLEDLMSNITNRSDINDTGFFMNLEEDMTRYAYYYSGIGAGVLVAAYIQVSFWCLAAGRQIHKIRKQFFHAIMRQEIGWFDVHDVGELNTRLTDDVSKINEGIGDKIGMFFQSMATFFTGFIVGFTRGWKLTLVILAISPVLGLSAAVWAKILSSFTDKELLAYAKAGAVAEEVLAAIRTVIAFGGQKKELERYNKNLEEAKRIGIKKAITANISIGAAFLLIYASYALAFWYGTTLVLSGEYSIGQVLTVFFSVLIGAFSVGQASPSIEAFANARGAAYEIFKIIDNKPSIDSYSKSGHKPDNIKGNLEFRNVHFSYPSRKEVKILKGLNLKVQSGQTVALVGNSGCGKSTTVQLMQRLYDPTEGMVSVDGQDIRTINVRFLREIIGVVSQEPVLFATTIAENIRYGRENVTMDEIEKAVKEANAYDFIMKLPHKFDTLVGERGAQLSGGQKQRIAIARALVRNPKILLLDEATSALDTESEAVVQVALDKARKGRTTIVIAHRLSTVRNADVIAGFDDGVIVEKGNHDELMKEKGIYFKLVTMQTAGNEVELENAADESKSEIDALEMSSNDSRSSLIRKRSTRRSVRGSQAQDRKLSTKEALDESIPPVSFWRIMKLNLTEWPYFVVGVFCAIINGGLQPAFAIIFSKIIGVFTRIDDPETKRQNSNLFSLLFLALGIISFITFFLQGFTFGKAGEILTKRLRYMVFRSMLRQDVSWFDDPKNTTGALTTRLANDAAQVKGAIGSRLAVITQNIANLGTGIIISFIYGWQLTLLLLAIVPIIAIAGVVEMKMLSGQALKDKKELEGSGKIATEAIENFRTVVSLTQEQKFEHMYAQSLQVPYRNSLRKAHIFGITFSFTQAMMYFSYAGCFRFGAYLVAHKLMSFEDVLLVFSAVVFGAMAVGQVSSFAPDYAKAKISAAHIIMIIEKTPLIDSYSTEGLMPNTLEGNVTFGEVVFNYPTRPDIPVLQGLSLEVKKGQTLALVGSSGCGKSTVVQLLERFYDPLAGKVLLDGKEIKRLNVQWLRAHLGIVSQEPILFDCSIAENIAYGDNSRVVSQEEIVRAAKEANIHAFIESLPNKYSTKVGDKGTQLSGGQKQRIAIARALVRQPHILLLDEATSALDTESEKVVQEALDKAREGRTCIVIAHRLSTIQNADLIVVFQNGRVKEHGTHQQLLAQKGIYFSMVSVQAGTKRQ

Structure (SMILES)	Activity
COC[C@H]1O[C@@H]2O[C@H]3[C@H](O)[C@@H](OC)[C@@H](O[C@H]4[C@H](O)[C@@H](OC)[C@@H](O[C@H]5[C@H](O)[C@@H](OC)[C@@H](O[C@H]6[C@H](O)[C@@H](OC)[C@@H](O[C@H]7[C@H](O)[C@@H](OC)[C@@H](O[C@H]8[C@H](O)[C@@H](OC)[C@@H](O[C@H]1[C@H](O)[C@H]2OC)O[C@@H]8COC)O[C@@H]7COC)O[C@@H]6COC)O[C@@H]5COC)O[C@@H]4COC)O[C@@H]3COC	inhibitor [+]
CCCC(OC(CCC)S(=O)(=O)O)S(=O)(=O)O.OC[C@H]1O[C@@H]2O[C@H]3[C@H](O)[C@@H](O)[C@@H](O[C@H]4[C@H](O)[C@@H](O)[C@@H](O[C@H]5[C@H](O)[C@@H](O)[C@@H](O[C@H]6[C@H](O)[C@@H](O)[C@@H](O[C@H]7[C@H](O)[C@@H](O)[C@@H](O[C@H]8[C@H](O)[C@@H](O)[C@@H](O[C@H]1[C@H](O)[C@H]2O)O[C@@H]8CO)O[C@@H]7CO)O[C@@H]6CO)O[C@@H]5CO)O[C@@H]4CO)O[C@@H]3CO	is not an inhibitor [-]
COC[C@@H]1O[C@H]2O[C@@H]3[C@@H](O)[C@H](O)[C@H](O[C@@H]4[C@@H](O)[C@H](O)[C@H](O[C@H]5[C@H](OC)[C@@H](O)[C@@H](O[C@@H]6[C@@H](O)[C@H](O)[C@H](O[C@@H]7[C@@H](O)[C@H](O)[C@H](O[C@@H]8[C@@H](O)[C@H](O)[C@H](O[C@@H]1[C@@H](O)[C@@H]2O)O[C@H]8COC)O[C@H]7COC)O[C@H]6COC)O[C@@H]5COC)O[C@H]4COC)O[C@H]3COC	is not an inhibitor [-]
CC(O)COC[C@H]1O[C@@H]2O[C@H]3[C@H](O)[C@@H](O)[C@@H](O[C@H]4[C@H](O)[C@@H](O)[C@@H](O[C@H]5[C@H](O)[C@@H](O)[C@@H](O[C@H]6[C@H](O)[C@@H](O)[C@@H](O[C@H]7[C@H](O)[C@@H](O)[C@@H](O[C@H]8[C@H](O)[C@@H](O)[C@@H](O[C@H]1[C@H](O)[C@H]2O)O[C@@H]8COCC(C)O)O[C@@H]7COCC(C)O)O[C@@H]6COCC(C)O)O[C@@H]5COCC(C)O)O[C@@H]4COCC(C)O)O[C@@H]3COCC(C)O (stereo partly drawn) [2-HYDROXYPROPYL-BETA-CYCLODEXTRIN]	is not an inhibitor [-]
